Values after ≈ are worked out from the molar mass of the structure shown.
Key:
[1] = Solubility of Brivaracetam in IPAc; conditions: IPAc (isopropyl acetate), organic solvent or mixture
[2] = Antisolvent (hexane) crystallisation of Brivaracetam/IPAc in capillary tubing; type: physicochemical; conditions: for Crystals Mean maximum length: inner diameter 500 μm, flows 20 and 20 mL · min^−1
Method: The length of the capillary tube has also been varied. In the following tests, antisolvent hexane at 4° C. was added to a solution of Brivaracetam/IPAc. It became clear that for these cases different lengths of tubing are to be investigated, as too long tube results into blockage of the tubes due to too high solid content in suspension in the solution, as reported in table 6. In all cases, the preferred rods form was observed.

[3] = Cooling crystallisation of acetylsalicylic acid in ethanol/water in capillary tubing; type: physicochemical
[4] = 200 mg/mL 50 vol % ethanol/water, residence time 5.3 s, initial 65° C., bath 10° C., tubing ID 1000 μm, flow rate 20 mL/min, tubing length 2.5 m
[5] = test 40: 200 mg/mL ethanol/water 50/50 vol %, 3 m tubing, Tc 15° C., σ 4.5, 30 mL/min, restriction 0, average of 10 tests
[6] = test 41: 200 mg/mL ethanol/water 50/50 vol %, 3 m tubing, Tc 15° C., σ 4.5, 30 mL/min, restriction 1 of 500 μm ID, average of 10 tests
[7] = test 42: 200 mg/mL ethanol/water 50/50 vol %, 3 m tubing, Tc 15° C., σ 4.5, 30 mL/min, restriction 2 of 500 μm ID, average of 10 tests
[8] = test 43: 200 mg/mL ethanol/water 50/50 vol %, 3 m tubing, Tc 15° C., σ 4.5, 30 mL/min, restriction 1 of 250 μm ID, average of 10 tests
[9] = test 44: 200 mg/mL ethanol/water 50/50 vol %, 3 m tubing, Tc 15° C., σ 4.5, 30 mL/min, restriction 2 of 250 μm ID, average of 10 tests

For CCC[C@@H]1CC(=O)N([C@@H](CC)C(N)=O)C1 [Brivaracetam], the solubility ([1]; 20 °C) was 136 mg/mL (≈ 641 mM), the solubility ([1]; 45 °C) was roughly 1100 mg/mL (≈ 5180 mM) and the Crystal form observed ([2]; all antisolvent (hexane) tests of tables 5 and 6) was “rods”. For the same compound, the “Crystals Mean maximum length” value ([2]; test 22: 150 mg · mL^−1 in IPAc, σ 8.4, hexane antisolvent, tubular length 18 cm) was 6 ± 2 μm, the “Crystals Mean maximum length” value ([2]; test 23: 150 mg · mL^−1 in IPAc, σ 8.4, hexane antisolvent, tubular length 33 cm) was 9 ± 5 μm and the “Crystals Mean maximum length” value ([2]; test 24: 150 mg · mL^−1 in IPAc, σ 8.4, hexane antisolvent, tubular length 50 cm) was 10 ± 5 μm. The “Crystals Mean maximum length” value ([2]; test 25: 150 mg · mL^−1 in IPAc, σ 8.4, hexane antisolvent, tubular length 50 cm) was 9 ± 4 μm, the “Crystals Mean maximum length” value ([2]; test 26: 150 mg · mL^−1 in IPAc, σ 8.4, hexane antisolvent, tubular length 100 cm) was “Blocked tube” and the “Crystals Mean maximum length” value ([2]; test 27: 200 mg · mL^−1 in IPAc, σ 11.5, hexane antisolvent, tubular length 18 cm) was 12 ± 6 μm. The “Crystals Mean maximum length” value ([2]; test 28: 200 mg · mL^−1 in IPAc, σ 11.5, hexane antisolvent, tubular length 33 cm) was 7 ± 3 μm, the “Crystals Mean maximum length” value ([2]; test 29: 200 mg · mL^−1 in IPAc, σ 11.5, hexane antisolvent, tubular length 50 cm) was 9 ± 5 μm and the “Crystals Mean maximum length” value ([2]; test 30: 200 mg · mL^−1 in IPAc, σ 11.5, hexane antisolvent, tubular length 50 cm) was 7 ± 3 μm. For the same compound, the “Crystals Mean maximum length” value ([2]; test 31: 200 mg · mL^−1 in IPAc, σ 11.5, hexane antisolvent, tubular length 100 cm) was “Blocked tube”, the “Crystals Mean maximum length” value ([2]; test 32: 300 mg · mL^−1 in IPAc, σ 17.8, hexane antisolvent, tubular length 50 cm) was 8 ± 3 μm and the “Crystals Mean maximum length” value ([2]; test 33: 300 mg · mL^−1 in IPAc, σ 17.8, hexane antisolvent, tubular length 100 cm) was “Blocked tube”.

For CC(=O)Oc1ccccc1C(=O)O [Acetylsalicylic acid, acetylsalicylic acid], the “Nucleation rate J” value ([3]; 200 mg/mL 50 vol % ethanol/water, residence time 5.3 s, initial 65° C., bath 10° C., tubing ID 750 μm, flow rate 20 mL/min, tubing length 4.2 m) was 50 000 mL^−1 · s−^1, the Crystal length ([3]; 200 mg/mL 50 vol % ethanol/water, residence time 5.3 s, initial 65° C., bath 10° C., tubing ID 750 μm, flow rate 30 mL/min, tubing length 6.2 m) was 285 μm and the Crystal length [3, 4] was 1279 μm. For the same compound, the “Nucleation rate J” value [3, 4] was 1400 mL^−1 · s−^1, the “Nucleation rate J” value ([3]; 200 mg/mL 50 vol % ethanol/water, residence time 5.3 s, initial 65° C., bath 10° C., tubing ID 1000 μm, flow rate 30 mL/min, tubing length 3.6 m) was 54 000 mL^−1 · s−^1 and the “Nucleation rate J” value ([3]; 200 mg/mL 50 vol % ethanol/water, residence time 5.3 s, initial 65° C., bath 10° C., tubing ID 1000 μm, flow rate 40 mL/min, tubing length 4.7 m) was 112 000 mL^−1 · s−^1. The Crystal length ([3]; 200 mg/mL 50 vol % ethanol/water, residence time 5.3 s, initial 65° C., bath 10° C., tubing ID 1500 μm, flow rate 20 mL/min, tubing length 1.2 m) was “No crystallization observed”, the Crystal length ([3]; 200 mg/mL 50 vol % ethanol/water, residence time 5.3 s, initial 65° C., bath 10° C., tubing ID 1500 μm, flow rate 30 mL/min, tubing length 1.7 m) was “No crystallization observed” and the Crystal length ([3]; 200 mg/mL 50 vol % ethanol/water, residence time 5.3 s, initial 65° C., bath 10° C., tubing ID 1500 μm, flow rate 40 mL/min, tubing length 2.2 m) was “No crystallization observed”. For the same compound, the Crystal length ([3]; test 34: 300 mg/mL ethanol-water, Tc 15° C., σ 27, Q 30 mL/min, tubing length 7 m, diameter 500 μm, 4 restrictions 1 mm long, 500 μm) was “Tube blocked”, the Crystal length ([3]; test 35: 300 mg/mL ethanol-water, Tc 10° C., σ 27, Q 30 mL/min, tubing length 6 m, diameter 750 μm, 4 restrictions 1 mm long, 500 μm) was “Tube blocked” and the Crystal length ([3]; test 36: 300 mg/mL ethanol-water, Tc 10° C., σ 27, Q 30 mL/min, tubing length 5 m, diameter 500 μm, 4 restrictions 1 mm long, 500 μm) was “Tube blocked”. The Crystal length ([3]; test 37: 300 mg/mL ethanol-water, Tc 10° C., σ 27, Q 30 mL/min, tubing length 3 m, diameter 500 μm, 4 restrictions 1 mm long, 500 μm) was 800 ± 68 μm, the Crystal length ([3]; test 38: 300 mg/mL ethanol-water, Tc 10° C., σ 27, Q 30 mL/min, tubing length 3 m, diameter 500 μm, 4 restrictions 1 mm long, 500 μm) was 820 ± 80 μm and the Crystal length ([3]; test 39: 300 mg/mL ethanol-water, Tc 10° C., σ 27, Q 30 mL/min, tubing length 3 m, diameter 500 μm, 4 restrictions 1 mm long, 500 μm) was 795 ± 73 μm. The Crystal length [3, 5] was 1319 ± 167 μm, the Nucleation rate [3, 5] was 2300 mL⁻¹ s⁻¹ and the “Sphere Equivalent Diameter” value [3, 5] was 449 ± 74 μm. For the same compound, the Crystal length [3, 6] was 1398 ± 100 μm, the Nucleation rate [3, 6] was 1900 mL⁻¹ s⁻¹ and the “Sphere Equivalent Diameter” value [3, 6] was 490 ± 85 μm. For the same compound, the Crystal length [3, 7] was 1049 ± 179 μm, the Nucleation rate [3, 7] was 3700 mL⁻¹ s⁻¹ and the “Sphere Equivalent Diameter” value [3, 7] was 348 ± 104 μm. The Crystal length [3, 8] was 962 ± 82 μm, the Nucleation rate [3, 8] was 5300 mL⁻¹ s⁻¹ and the “Sphere Equivalent Diameter” value [3, 8] was 328 ± 31 μm. For the same compound, the Crystal length [3, 9] was 393 ± 35 μm, the Nucleation rate [3, 9] was 130 000 mL^−1 · s^−1 and the “Sphere Equivalent Diameter” value [3, 9] was 117 ± 20 μm. The “Crystal depth as fraction of the width” value ([3]; tests 43 and 44 (250 μm inner diameter restrictions), 200 mg/mL ethanol/water 50/50) was “about ⅕”.

From US20210238138A1, “Method for improving nucleation of crystals from solution” (Université Libre de Bruxelles, priority 2018, published 2021)
